# Where a name gives a salt, the structure may show the parent alone.
# Tests used:
# ATM = ATM (Homo sapiens (Human), UniProt Q13315); experiment: ATM in Cell Western Assay (pKAP1 in etoposide-treated MCF-7 cells); assay type: cell-based
# Outline: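 After paraformaldehyde fixation and Triton X-100 permeabilization, immunostained plates were read by infrared scanning (ODYSSEY CLx). Compound was given as 10 doses, 3-fold dilutions from a 1 μM final top concentration.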
# DNA-PK = DNA-PK (Homo sapiens (Human), UniProt P78527); experiment: DNA-PK Enzyme-Linked Immunosorbent Assay (phosphorylation of GST-p53 (1-101) peptide); assay type: biochemical; conditions: ELISA
# Protocol: Assay of Compounds ATM and DNA-PK Inhibition
# remove wash solution, turn plate upside down onto a thin paper towel and centrifuge at 1000 rpm for 1 min to absorb all wash buffer. Clean the bottom of plate with moist lint free paper. Scan plate immediately using ODYSSEY CLx (LI-COR) for the best results. DNA-PK Enzyme-Linked Immunosorbent Assay:
# On day one, coat 96-well plate (ThermoFisher. Cat #: 442404) with GST-p53 (1-101) peptide (purified by Pharmaron, BCS department) by diluting 3 μg of GST-p53 each well with 0.1 M Na2CO3/NaHCO3, pH 9.6. Incubate the plate overnight at 4° C. The second day, remove coating buffer, wash 2× with PBST (1×PBS containing 0.1% Tween-20). Then add DNA-PK enzyme solution (Invitrogen, #PR9107A; the final DNA-PK concentration is 0.1 μg/mL), series dilution compounds (the final top concentration is 100 nM, 3 fold series dilution, with total 10 doses) and ATP solution (the final ATP concentration is 20 μM) to the 96-well plate. Incubate the plate at 25° C. for 1 hour. Then wash 3× with PBST (1×PBS containing 0.1% Tween-20). Block the plate with PBST+ 1% BSA at 4° C. overnight. The third day, wash 4× with PBST (1×PBS containing 0.1% Tween-20). Then add Phospho-p53 primary antibody (cell signaling Technology, #9286, Phospho-p53 (Ser15) (16G8) Mouse mAb) (1/1000) to each well. Seal with plate and incubate the plate for 1 h at 37° C. Wash 4× with PBST (1×PBS containing 0.1% Tween-20), add 100 μL of HRP-linked secondary antibody (Cell signaling Technology, #7076, Anti-mouse IgG, HRP-linked Antibody) (1/1000) to each well. Seal with tape and incubate the plate for 30 min at 37° C. Wash 4× with PBST (1×PBS containing 0.1% Tween-20), add 100 μL of TMB (Cell signaling Technology, #7004) substrate to each well. Seal with tape and incubate the plate for 10 min at 37° C. Then add 100 μL of Stop solution (Cell signaling Technology, #7002) to each well. Read the plate at 450 nm to detect absorption.
# [1] = pKAP1 in etoposide-treated MCF-7 cells
# [2] = MCF-7 cells, etoposide 100 μM, 1 hr, pKAP1 readout
# ATM, sequence (Q13315 whole entry): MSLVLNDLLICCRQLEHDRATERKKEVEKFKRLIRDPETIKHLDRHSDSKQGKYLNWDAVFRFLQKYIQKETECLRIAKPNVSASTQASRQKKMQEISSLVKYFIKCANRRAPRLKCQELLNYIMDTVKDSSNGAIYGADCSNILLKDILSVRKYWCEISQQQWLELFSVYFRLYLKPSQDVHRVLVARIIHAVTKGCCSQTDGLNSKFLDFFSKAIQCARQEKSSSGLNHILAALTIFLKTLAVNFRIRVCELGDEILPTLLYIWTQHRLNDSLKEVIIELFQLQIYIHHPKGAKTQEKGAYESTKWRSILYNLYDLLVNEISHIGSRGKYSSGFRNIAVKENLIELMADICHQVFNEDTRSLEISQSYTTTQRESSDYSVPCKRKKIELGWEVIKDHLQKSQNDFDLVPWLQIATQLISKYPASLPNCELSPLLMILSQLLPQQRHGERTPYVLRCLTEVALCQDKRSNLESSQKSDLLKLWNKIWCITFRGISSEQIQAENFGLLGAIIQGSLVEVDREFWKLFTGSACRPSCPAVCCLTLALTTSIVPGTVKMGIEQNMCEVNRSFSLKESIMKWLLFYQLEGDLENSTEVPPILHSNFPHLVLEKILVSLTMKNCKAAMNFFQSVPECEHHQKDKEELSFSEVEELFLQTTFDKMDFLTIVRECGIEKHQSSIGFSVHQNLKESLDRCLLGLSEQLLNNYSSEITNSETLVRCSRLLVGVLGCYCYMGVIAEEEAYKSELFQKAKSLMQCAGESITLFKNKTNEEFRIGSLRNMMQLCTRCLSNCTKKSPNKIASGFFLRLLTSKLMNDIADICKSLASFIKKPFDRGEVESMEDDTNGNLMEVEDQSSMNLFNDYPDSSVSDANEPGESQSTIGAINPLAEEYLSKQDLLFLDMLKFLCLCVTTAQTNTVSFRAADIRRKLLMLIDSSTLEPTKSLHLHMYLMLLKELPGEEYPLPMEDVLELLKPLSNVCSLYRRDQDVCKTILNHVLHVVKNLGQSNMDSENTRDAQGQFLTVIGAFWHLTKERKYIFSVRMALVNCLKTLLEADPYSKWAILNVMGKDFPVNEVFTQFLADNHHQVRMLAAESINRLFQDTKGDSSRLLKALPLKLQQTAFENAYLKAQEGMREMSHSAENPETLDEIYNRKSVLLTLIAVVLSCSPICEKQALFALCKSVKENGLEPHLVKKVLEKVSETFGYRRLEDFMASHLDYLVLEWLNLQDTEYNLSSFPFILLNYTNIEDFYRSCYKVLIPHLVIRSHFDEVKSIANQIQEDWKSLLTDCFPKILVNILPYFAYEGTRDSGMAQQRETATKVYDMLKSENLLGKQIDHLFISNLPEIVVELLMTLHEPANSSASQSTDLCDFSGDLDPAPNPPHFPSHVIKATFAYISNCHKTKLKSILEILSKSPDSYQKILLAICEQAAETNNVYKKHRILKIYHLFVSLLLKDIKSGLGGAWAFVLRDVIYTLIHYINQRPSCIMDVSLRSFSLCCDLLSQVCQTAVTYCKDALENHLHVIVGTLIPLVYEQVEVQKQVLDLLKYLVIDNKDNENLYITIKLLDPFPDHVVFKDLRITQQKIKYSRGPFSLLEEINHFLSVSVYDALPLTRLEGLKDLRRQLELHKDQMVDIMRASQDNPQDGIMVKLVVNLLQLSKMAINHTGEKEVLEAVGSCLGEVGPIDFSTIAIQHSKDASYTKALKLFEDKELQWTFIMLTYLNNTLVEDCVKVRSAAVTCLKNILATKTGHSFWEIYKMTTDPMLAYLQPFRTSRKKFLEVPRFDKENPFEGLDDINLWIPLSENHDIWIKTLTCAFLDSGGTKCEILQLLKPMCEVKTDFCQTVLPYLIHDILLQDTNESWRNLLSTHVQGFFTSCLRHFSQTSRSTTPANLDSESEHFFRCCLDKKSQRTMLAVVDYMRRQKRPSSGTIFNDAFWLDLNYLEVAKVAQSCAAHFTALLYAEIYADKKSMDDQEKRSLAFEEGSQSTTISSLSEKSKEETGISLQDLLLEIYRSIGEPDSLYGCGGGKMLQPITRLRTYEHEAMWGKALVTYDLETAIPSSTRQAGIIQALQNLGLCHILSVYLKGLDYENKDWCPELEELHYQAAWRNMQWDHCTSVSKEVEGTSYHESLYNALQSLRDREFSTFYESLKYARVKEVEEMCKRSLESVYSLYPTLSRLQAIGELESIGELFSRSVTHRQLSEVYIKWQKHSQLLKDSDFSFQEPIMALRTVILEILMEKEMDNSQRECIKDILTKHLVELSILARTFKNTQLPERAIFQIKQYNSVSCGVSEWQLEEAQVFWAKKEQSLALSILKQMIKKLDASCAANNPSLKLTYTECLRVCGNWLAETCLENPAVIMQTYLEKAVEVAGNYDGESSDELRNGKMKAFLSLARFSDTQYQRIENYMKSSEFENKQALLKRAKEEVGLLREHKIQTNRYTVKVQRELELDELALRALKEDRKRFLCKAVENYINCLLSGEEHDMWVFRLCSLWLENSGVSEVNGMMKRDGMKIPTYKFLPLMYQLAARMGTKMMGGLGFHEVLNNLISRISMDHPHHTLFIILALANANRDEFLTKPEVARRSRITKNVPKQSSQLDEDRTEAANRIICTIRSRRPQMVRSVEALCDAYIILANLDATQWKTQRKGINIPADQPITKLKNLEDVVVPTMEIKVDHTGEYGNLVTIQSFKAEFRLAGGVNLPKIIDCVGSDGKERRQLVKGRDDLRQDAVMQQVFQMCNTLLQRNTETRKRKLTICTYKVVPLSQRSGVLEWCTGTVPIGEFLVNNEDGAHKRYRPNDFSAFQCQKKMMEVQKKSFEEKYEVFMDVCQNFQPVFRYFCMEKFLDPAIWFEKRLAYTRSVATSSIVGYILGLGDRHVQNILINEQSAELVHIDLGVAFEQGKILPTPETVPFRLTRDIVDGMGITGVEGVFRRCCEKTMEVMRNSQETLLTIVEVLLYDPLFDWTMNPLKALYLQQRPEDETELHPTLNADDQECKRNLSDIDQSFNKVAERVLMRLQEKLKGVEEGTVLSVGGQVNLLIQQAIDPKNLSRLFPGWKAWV
IC50 (ATM; [1]) [nM],IC50 (DNA-PK; 20 μM ATP) [nM],IC50 (ATM; [2]) [nM],IC50 (DNA-PK; ATP 20 μM) [nM],Compound
1 to 100,0.5 to 1,,,"CC(C)NCCOc1ncc(-c2cc3c4c(cnc3cc2F)N(C)C(=O)C42CCC2)cc1NS(=O)(=O)N(C)C [Example 369, 8′-{5-[(Dimethylsulfamoyl)amino]-6-{2-[(propan-2-ylamino]ethoxy′}pyridin-3-yl}-7′-fluoro-3′-methyl-2′,3′-dihydrospiro [cyclobutane-1,1′-pyrrolo[2,3-c]quinoline]-2′-one hydrochloride]"
,,1 to 100,< 0.5,"CN(C)CCCOc1ncc(-c2ccc3ncc4c(c3c2)C2(CCC2)C(=O)N4C)cc1NS(=O)(=O)C(F)F [Example 247, N-(2-(3-(Dimethylamino)propoxy)-5-(3′-methyl-2′-oxo-2′,3′-dihydrospiro [cyclobutane-1,1′-pyrrolo[2,3-c]quinolin]-8′-yl)pyridin-3-yl)-1,1′-difluoromethane-sulfonamide]"
,,1 to 100,1 to 100,"CCCS(=O)(=O)Nc1cc(-c2ccc3ncc4c(c3c2)C2(CCC2)C(=O)N4C)cnc1OCCCN(C)C [Example 241, N-(2-(3-(Dimethylamino)propoxy)-5-(3′-methyl-2′-oxo-2′,3′-dihydrospiro [cyclobutane-1,1′-pyrrolo[2,3-c]quinolin]-8′-yl)pyridin-3-yl)propane-1-sulfonamide]"
,,0.5 to 1,< 0.5,"CN(C)CCCOc1ncc(-c2ccc3ncc4c(c3c2)C2(CC2)C(=O)N4C)cc1NS(=O)(=O)c1cccc(C#N)c1 [Example 96, 3-Cyano-N-(2-(3-(dimethylamino)propoxy)-5-(3′-methyl-2′-oxo-2′,3′-dihydrospiro[cyclopropane-1,1′-pyrrolo[2,3-c]quinolin]-8′-yl)pyridin-3-yl)benzenesulfonamide]"
,,1 to 100,1 to 100,"CN(C)CCCOc1ncc(-c2ccc3ncc4c(c3c2)C2(CC(F)C2)C(=O)N4C)cc1NS(C)(=O)=O (stereo not drawn) [Example 262, N-(2-(3-(Dimethylamino)propoxy)-5-(3-fluoro-3′-methyl-2′-oxo-2′,3′-dihydrospiro[cyclobutane-1,1′-pyrrolo[2,3-c]quinolin]-8′-yl)pyridin-3-yl)methanesulfonamide]"
1 to 100,1 to 100,,,"Cc1cccc(N2CC3(C2)C(=O)N(C)c2cnc4cc(F)c(-c5cnc(OCCNC(C)C)c(NS(C)(=O)=O)c5)cc4c23)c1 [Example 527, N-(5-(7′-Fluoro-3′-methyl-2′-oxo-1-(m-tolyl)-2′,3′-dihydrospiro[azetidine-3,1′-pyrrolo[2,3-c]quinolin]-8′-yl)-2-(2-(isopropylamino)ethoxy)pyridin-3-yl)methanesulfonamide]"
> 100,1 to 100,,,"CC(C)NCCOc1ncc(-c2cc3c(cc2F)ncc2c3[C@]3(C[C@@H](c4cccnc4)C3)C(=O)N2C)cc1NS(C)(=O)=O [Example 437, trans-N-{5-(7′-Fluoro-3′-methyl-2′-oxo-3-(pyridin-3-yl)-2′,3′-dihydrospiro[cyclobutane-1,1′-pyrrolo[2,3-c]quinolin]-8′-yl)-2-(2-(isopropylamino)ethoxy)pyridin-3-yl)methanesulfonamide]"
,,1 to 100,< 0.5,"CN(C)CCCOc1ncc(-c2ccc3ncc4c(c3c2)C2(CCC2)C(=O)N4C)cc1NS(=O)(=O)c1cscn1 [Example 160, N-(2-(3-(Dimethylamino)propoxy)-5-(3′-methyl-2′-oxo-2′,3′-dihydrospiro[cyclobutane-1,1′-pyrrolo[2,3-c]quinolin]-8′-yl)pyridin-3-yl)thiazole-4-sulfonamide hydrochloride]"
,,0.5 to 1,0.5 to 1,"CN(C)CCCOc1ncc(-c2ccc3ncc4c(c3c2)C2(CCC2)C(=O)N4C)cc1NS(=O)(=O)c1ccc(F)cc1 [Example 158, N-(2-(3-(Dimethylamino)propoxy)-5-(3′-methyl-2-oxo-2′,3′-dihydrospiro[cyclobulane-1,1′-pyrrolo[2,3-c]quinolin]-8′-yl)pyridin-3-yl)-4-fluorobenzenesulfonamide hydrochloride]"

# More lines, now with the values behind:
Compound,IC50 (ATM; [1]) [nM],IC50 (DNA-PK; 20 μM ATP) [nM],IC50 (ATM; [2]) [nM],IC50 (DNA-PK; ATP 20 μM) [nM]
Cc1ccc(S(=O)(=O)Nc2cc(-c3ccc4ncc5c(c4c3)C3(CC3)C(=O)N5C)cnc2N2CCC(N3CCCCC3)CC2)cn1 [Example 218],,,1 to 100,< 0.5
"CN1C(=O)C2(CCC2)c2c1cnc1ccc(-c3cnc(N4CCC(N5CCOCC5)CC4)c(NS(=O)(=O)C4CC4)c3)cc21 [Example 356, N-(5-(3′-Methyl-2′-oxo-2′,3′-dihydrospiro[cyclobutane-1,1′-pyrrolo[2,3-c]quinolin]-8′-yl)-2-(4-morpholinopiperidin-l-yl)pyridin-3-yl)cyclopropanesulfonamide hydrochloride]",< 0.5,0.5 to 1,,
"CN1C(=O)C2(CC2)c2c1cnc1ccc(-c3cnc(OCCCN4CCCC4)c(NS(=O)(=O)c4ccccc4)c3)cc21 [Example 58, N-(5-(3′-Methyl-2′-oxo-2′,3′-dihydrospiro[cyclopropane-1,1′-pyrrolo[2,3-c]quinolin]-8′-yl)-2-(3-(pyrrolidin-1-yl)propoxy)pyridin-3-yl)benzenesulfonamide]",,,< 0.5,< 0.5
"CN1CCN(c2ncc(-c3ccc4ncc5c(c4c3)C3(CC3)C(=O)N5C)cc2NS(=O)(=O)c2ccccc2)CC1 [Example 49, N-(5-(3′-Methyl-2′-oxo-2′,3′-dihydrospiro[cyclopropane-1,1′-pyrrolo[2,3-c]quinolin]-8′-yl)-2-(4-methylpiperazin-1-yl)pyridin-3-yl)benzenesulfonamide]",,,0.5 to 1,< 0.5
"CN1CCN(c2ncc(-c3ccc4ncc5c(c4c3)C3(CCC3)C(=O)N5C)cc2NS(=O)(=O)c2ccccc2)CC1 [Example 243, N-(5-(3′-Methyl-2′-oxo-2′,3′-dihydrospiro[cyclobutane-1,1′-pyrrolo[2,3-c]quinolin]-8′-yl)-2-(4-methylpiperazin-l-yl)Pyridin-3-yl)benzenesulfonamide]",,,1 to 100,1 to 100
"CN1C(=O)C2(CCC2)c2c1cnc1ccc(-c3cnc(OCCCN4CCCCC4)c(NS(=O)(=O)N(C)C)c3)cc21 [Example 180, hydrochloride]",,,1 to 100,0.5 to 1
"CN(C)CCCOc1ncc(-c2ccc3ncc4c(c3c2)C2(CCC2)C(=O)N4C)cc1NS(=O)(=O)N1CCN(C)CC1 [Example 162, N-(2-(3-(Dimethylamino)propoxy)-5-(3′-methyl-2′-oxo-2′,3′-dihydrospiro[cyclobutane-1,1′-pyrrolo[2,3-c]quinolin]-8′-yl)pyridin-3-yl)-4-methylpiperazine-1-sulfonamide hydrochloride]",,,1 to 100,0.5 to 1
CN(C)CCCOc1ccc(-c2ccc3ncc4c(c3c2)C2(CC2)C(=O)N4C)cc1NS(=O)(=O)c1cccc(F)c1 [Example 90],,,0.5 to 1,1 to 100
"CN(C)CCCOc1ncc(-c2ccc3ncc4c(c3c2)C2(CCC2)C(=O)N4C)cc1NS(=O)(=O)c1ccsc1 [Example 272, N-(2-(3-(Dimethylamino)propoxy)-5-(3′-methyl-2′-oxo-2′,3′-dihydrospiro [cyclobutane-1,1′-pyrrolo[2,3-c]quinolin]-8′-yl)pyridin-3-yl) thiophene-3-sulfonamide]",,,0.5 to 1,1 to 100
"Cc1ccc(S(=O)(=O)Nc2cc(-c3ccc4ncc5c(c4c3)C3(CCC3)C(=O)N5C)cnc2N2CCC(N(C)C)CC2)cn1 [Example 185, N-(2-(4-(Dimethylamino)piperidin-1-yl)-5-(3′-methyl-2′-oxo-2′,3′-dihydrospiro[cyclobutane-1,1′-pyrrolo[2,3-c]quinolin]-8′-yl)pyridin-3-yl)-6-methylpyridine-3-sulfonamide hydrochloride]",,,1 to 100,0.5 to 1
"COc1ccc(S(=O)(=O)Nc2cc(-c3ccc4ncc5c(c4c3)C3(CC3)C(=O)N5C)cnc2OCCCN2CCCCC2)cc1 [Example 119, 4-Methoxy-N-(5-(3′-methyl-2′-oxo-2′,3′-dihydrospiro[cyclopropane-1,1′-pyrrolo[2,3-c]quinolin]-8′-yl)-2-(3-(piperidin-1-yl)propoxy)pyridin-3-yl(benzenesulfonamide hydrochloride]",,,1 to 100,< 0.5
"CN1C(=O)C2(CCC2)c2c1cnc1ccc(-c3cnc(N4CCC(N(C)C)C4)c(NS(C)(=O)=O)c3)cc21 (racemic) [Example 351, (rac)-N-(2-(3-(Dimethylamino)pyrrolidin-1-yl)-5-(3′-methyl-2′-oxo-2′,3′-dihydrospiro[cyclobutane-1,1′-pyrrolo[2,3-c]quinolin]-8′-yl)pyridin-3-yl)methanesulfonamide]",1 to 100,1 to 100,,

# — patent US12187742B2 (XRAD Therapeutics, Inc., priority 2018, dated 2025)
